Experimental data reported in BindingDB's records for doi:10.1007/s00044-007-9052-5 (Central Drug Research Institute, 2008).

Target: DNA ligase A (Mycobacterium tuberculosis (strain ATCC 25618 / H37Rv), UniProt P9WNV1)
Assay: Enzyme Assay
From the text: All assays have been carried out using procedures previously described by our group (Srivastava et al., 2005a; 2005b; 2007)

In the case of `CC1(C)O[C@H]2OC(C(CCO)NCCCN[C@@H](CCO)C3O[C@@H]4OC(C)(C)O[C@@H]4[C@H]3OCc3ccccc3)[C@H](OCc3ccccc3)[C@H]2O1` (stereo partly specified) [Glycosylamine, 4], the IC50 is reported as 46.2 µM.
